One data set relates to DRG neurons. Briefly: Nissl staining of L5 dorsal root ganglia sections of CIPN rats. Conditions: oxaliplatin 4 mg/kg i.p. It is filed as in vivo, rat. Here is the method: (§1) (2) Modeling and Administration: The first day of drug treatment was referred to as d1. […] After the last administration, the rats were sacrificed. Spinal cord and L5 dorsal root ganglia were harvested from all experimental animals, and taken to make tissue sections, which were stained with Nissl staining to observe the extent of damage in neurons. The expressions of pain-related TRP ion channel proteins, TRPMS, TRPV1, and TRPA1mRNA, in dorsal root ganglion tissue were determined by qPCR assay. (4) Von Frey test for mechanical allodynia: According to the method described by Chaplan et al^[22], the mechanical allodynia was assessed by von Frey test. Rats were placed in a clear plastic box (22×12×22 cm) with a wire mesh floor and allowed to habituate for 15 min prior to testing. […] 3.

For the next data set, the system named is TRPA1 mRNA. Briefly: TRPA1 mRNA expression in DRG by real-time PCR. In kind it is in vivo, rat. Conditions: L4-L6 DRG; oxaliplatin model group; P<0.01. Here is the method: as §1, with “Withdrawal responses to the stimulation of von Frey filaments were recorded and paw withdrawal thresholds were determined by a modified up-down method. Each von Frey filament with equivalent force was measured for five times, and the time interval between simulations was 30 seconds, 3 or more times of positive reactions out of 5 simulations was deemed to be mechanical allodynia. […]” for “3.”
(§2) To elucidate the mechanism of the preventive effect of AC591 on oxaliplatin-induced peripheral neuropathy, we determined the expression of TRPM8, TRPV1 and TRPA1 mRNA in L4-L6 DRG using real-time PCR.

Data set [1] in a line: Body weight of CIPN rats (oxaliplatin-induced peripheral neuropathy model). In kind it is in vivo, rat. Conditions: oxaliplatin 4 mg/kg i.p. twice per week; after 7 days of modeling.
Excerpt: (§3) Animals were housed 3 per cage in a temperature- and humidity-controlled environment under a 12/12-h light/dark cycle. Food and water were freely available. All experimental procedures were approved by the Animal Experimental committee of Jiangsu Province Academy of Traditional Chinese Medicine. All efforts were made to minimize the number of animals used and their suffering.
(§4) (1) Animal Grouping: the rats were randomly divided into five groups by using randomized grouping method (N=10 rats/group):
(§5) Group 1: saline (control group)
as §1

The test system of data set [2] is CT26 murine colorectal cancer cells. Briefly: Colorectal cancer subcutaneous xenograft, tumor volume. In kind it is in vivo, Balb/c mice. Conditions: oxaliplatin 5 mg/kg i.p.; days 4 and 7; P<0.05. As for the experimental part:
Experimental Animals and Cell Lines: Six-week-old Balb/c mice weighing (16±2) g, bisexual each half, were purchased from Shanghai Slac Laboratory Animal Center and kept in SPF Laboratory Animal Room in Institute of Chinese Medicine and Pharmacy of Jiangsu Province. CT26 murine colorectal cancer cells were obtained from molecular biology laboratory of Institute of Chinese Medicine and Pharmacy of Jiangsu Province.
CT26 cells were cultured in Dulbecco's Modified Eagle Medium with 2.0 g/1 sodium bicarbonate plus 10% fetal bovine serum, 1% L-glutamine, 100 U/ml penicillin and 100 U/ml streptomycin. When the cells were approximately 80% confluent, the culture medium was discarded and washed with PBS. Trypsin was then introduced to perform digestion. When the connection between cells appeared loose, the trypsin was discarded, and cell culture medium was introduced to terminate the digestion. Cells were repeatedly and gently pipetted with a pipette so as to be taken off the wall to form cell suspension. It was collected into centrifuge tubes and centrifuged. The concentration of cell suspension was adjusted to 1×10^6/0.2 ml with 0.9% sterile saline. […]
Tumor volume and body weight were recorded every 3 days, and the tumor volume was calculated using the formula: tumor volume (mm^3)=length (mm)×width (mm)^2/2. […]

In the next data set the test system is TRPV1 mRNA. Kind of data set: TRPV1 mRNA expression in DRG by real-time PCR. In kind it is in vivo, rat. Conditions: L4-L6 DRG; oxaliplatin model group; P<0.01. As for the experimental part:
as §1, with “Withdrawal responses to the stimulation of von Frey filaments were recorded and paw withdrawal thresholds were determined by a modified up-down method. Each von Frey filament with equivalent force was measured for five times, and the time interval between simulations was 30 seconds, 3 or more times of positive reactions out of 5 simulations was deemed to be mechanical allodynia. […]” for “3.”
as §2

For data set [3] the following is noted: cumulative dose of 1170 mg/m^2; cited from earlier work.
For another data set, the system named is CIPN rats. Kind of data set: Von Frey test for mechanical allodynia in CIPN rats. It is filed as in vivo, rat. Conditions: oxaliplatin 4 mg/kg i.p.; 14 days after the experiment; P<0.05.
Excerpt: as §3, §4, §5, §1

For another data set, the system named is TRPM8 mRNA. Kind of data set: TRPM8 mRNA expression in DRG by real-time PCR. In kind it is in vivo, rat. Conditions: L4-L6 DRG; oxaliplatin model group; P<0.01. Here is the method:
as §1, with “Withdrawal responses to the stimulation of von Frey filaments were recorded and paw withdrawal thresholds were determined by a modified up-down method. Each von Frey filament with equivalent force was measured for five times, and the time interval between simulations was 30 seconds, 3 or more times of positive reactions out of 5 simulations was deemed to be mechanical allodynia. […]” for “3.”
as §2
Background: Quantitative PCR measures a nucleic acid by following its amplification.

The text below walks through data of patent US9005678B1, “Pharmaceutical composition for treating cancer and use thereof” (Jiangsu Province Institute of Traditional Chinese Medicine, priority 2013, dated 2015).

SMILES strings stand for the structures.

Turning to `O=C1[O][Pt]2([NH][C@@H]3CCCC[C@H]3[NH]2)[O]C1=O` [oxaliplatin], the “DRG neuron morphology in model group” value in the data set with DRG neurons was “part of cell bodies and nuclei of neurons greatly shrinked”. Further, in the data set with TRPA1 mRNA, the “expression of TRPA1 mRNA, increase in model group compared with control group” value is 2-4 fold. For the same molecule, in data set [1], the “body weight of rats in model group versus control group” value is reported as “significantly lower”. Besides, the “tumour volumes compared with vehicle” value in data set [2] was “significantly inhibited the increase of tumour volumes”. Further, in the data set with TRPV1 mRNA, the “expression of TRPV1 mRNA, increase in model group compared with control group” value is given as 2-4 fold. For the same molecule, in data set [3], the risk of neurotoxicity is recorded as 50%. In addition, the “mechanical paw-withdrawing threshold, model group compared with control group” value in the data set with CIPN rats is listed as “significantly decreased”. Moreover, the “expression of TRPM8 mRNA, increase in model group compared with control group” value in the data set on TRPM8 mRNA is 2-4 fold.
